Measurements from patent US20210308117A1, “METHODS OF TREATING VIRAL INFECTIONS USING INHIBITORS OF NUCLEOTIDE SYNTHESIS PATHWAYS” (priority 2020, published 2021).
Like-named read-outs stand apart in the source and are kept apart here.

What was measured:
[1] = tested on: SARS-CoV-2; assay: microbe, parasite or virus in culture; format: cell-based
[2] = tested on: H1-HeLa cells; details: human, 3 days
[3] = cited from earlier work
[4] = tested on: RNA virus; assay: Daily dosing of brequinar in a subject infected with an RNA virus; format: in vivo; details: once per day for five consecutive days; first peak in brequinar level
Protocol: The mechanism by which administration of a DHODH inhibitor according to a daily dosing regimen inhibits viral replication is illustrated below. […] Throughout the course of the dosing regimen, levels of intracellular pyrimidines, such as uridine, and viral replication are measured.

[5] = human, in vivo
[6] = clinical; details: human, in vivo, po
[7] = tested on: Vero76 (monkey kidney); details: cited from earlier work
[8] = tested on: 16HBE (human bronchial epithelial); details: cited from earlier work
[9] = tested on: HeLa (human cervical tumor); details: cited from earlier work
[10] = tested on: Vero (monkey kidney); details: cited from earlier work
[11] = tested on: HuH7 (human hepatocellular carcinoma); details: cited from earlier work
[12] = tested on: Primary Human Fibroblasts; details: cited from earlier work
[13] = in vivo, iv; cited from earlier work
[14] = tested on: H1-HeLa cells; assay: Cytotoxicity XTT assay in H1-HeLa cells; details: read-out: TC50, 3 days
[15] = Adverse events in subjects receiving brequinar; details: i.v. once a week
[16] = weekly rapid iv injection; previously treated patients with advanced lung cancer; cited from earlier work
[17] = tested on: Vero E6 cells; details: remdesivir co-treated with brequinar
[18] = 1-h i.v. infusion every 3 weeks

SMILES: CC(C)C[C@H](NC(=O)OCc1ccccc1)C(=O)N[C@@H](CC1CCNC1=O)C(O)S(=O)(=O)[O-].[Na+] (stereo partly drawn) [GC-376]
- SI50 (Selective Index 50 = CC50/IC50) [1]: >24.5

SMILES: CCOC(=O)/C=C/[C@H](C[C@@H]1CCNC1=O)NC(=O)[C@@H](CC(=O)[C@@H](NC(=O)c1cc(C)on1)C(C)C)Cc1ccc(F)cc1 [Rupintrivir]
- CC50 [2]: > 100 nM

SMILES: Cc1c(-c2ccc(-c3ccccc3F)cc2)nc2ccc(F)cc2c1C(=O)O [brequinar sodium]
- recommended dose for phase II studies, good-risk patients [3, 18]: 1,800 mg/m^2
- recommended dose for phase II studies, poor-risk patients [3, 18]: 1,200 mg/m^2
- maximum tolerable dose, good-risk patients ([3]; i.v. infusion every 3 weeks): 2,250 mg/m^2
- maximum tolerable dose, poor-risk patients ([3]; i.v. infusion every 3 weeks): 1,500 mg/m^2

SMILES: Cc1c(-c2ccc(-c3ccccc3F)cc2)nc2ccc(F)cc2c1C(=O)O [brequinar, 6-fluoro-2-(2′-fluoro-1,1′ biphenyl-4-yl)-3-methyl-4-quinoline carboxylic acid]
- intracellular pyrimidine pool [4]: dramatic decrease in the intracellular pyrimidine pool
- cumulative effect of repeated doses [5]: No cumulative effective of repeated doses
- bioavailability [6]: > 90%
- CC50 [7]: > 50 µM
- CC50 [8]: > 50 µM
- CC50 [9]: > 25 µM
- CC50 [10]: > 50 µM
- CC50 [11]: > 25 µM
- CC50 [12]: > 50 µM
- recommended dose for phase II evaluation, good risk patients [13]: 250 mg/m^2
- recommended dose for phase II evaluation, poor risk patients [13]: 135 mg/m^2
- CC50 [14]: 300 nM
- Infection: No. of Patients, Max Grade 1 [15]: 4
- Infection: No. of Patients, Max Grade 2 [15]: 3
- Infection: No. of Patients, Max Grade 3 [15]: 0
- Infection: No. of Patients, Max Grade 4 [15]: 0

SMILES: NC(=O)c1[nH]nc([C@@H]2O[C@H](CO)[C@@H](O)[C@H]2O)c1O [pyrazofurin, 5-[(2S,3R,4S,5R)-3,4-dihydroxy-5-(hydroxymethyl)oxolan-2-yl]-4-hydroxy-1H-pyrazole-3-carboxamide]
- therapeutic value [16]: little therapeutic value as a single agent

SMILES: CCC(CC)COC(=O)[C@H](C)N[P@](=O)(OC[C@H]1O[C@@](C#N)(c2ccc3c(N)ncnn23)[C@H](O)[C@@H]1O)Oc1ccccc1 [remdesivir]
- fold increase in activity of remdesivir [1]: > 6.8 fold
- E(Max) ([1]; SARS-CoV-2, Vero E6, maximum CPE-protection effect): 100
- cytotoxicity by the co-treatment [17]: No enhanced cytotoxicity

SMILES: NC(=O)c1ncn([C@@H]2O[C@H](CO)[C@@H](O)[C@H]2O)n1 [ribavirin]
- EC50 ([1]; Severe acute respiratory syndrome coronavirus 2, Vero C1008, SARS-CoV-2, Vero E6, MOI 0.05, read-out: EC50 (50% of the maximum CPE-protection effect of the compound)): > 50 µM
